Laboratory results as given in ChEMBL document CHEMBL1133391, “Synthesis and antibacterial activity of 2alpha-functionalized 1beta-methylcarbapenems related to KR-21012” (Bioorg Med Chem Lett, 2000).
≈ marks a conversion by molar mass, not a printed value.

Legend:
[1] = Tmax at a single subcutaneous administration of 40 mg/kg in mice; format: ADME, organism-based; set-up: dose 40 mg/kg, route subcutaneous; details: mouse, in vivo, sc
[2] = Urinary recovery by disk method using Streptococcus pyogenes (0-24 h); format: ADME, organism-based; details: mouse, urine; read-out: UR
[3] = Half-life at a single subcutaneous administration of 40 mg/kg in mice; format: ADME, organism-based; set-up: dose 40 mg/kg, route subcutaneous; details: mouse, in vivo, sc
[4] = tested on: Mus musculus; test: Area under the curve was determined for the compound at a single subcutaneous administration of 40 mg/kg in mice; format: ADME, organism-based; set-up: dose 40 mg/kg, route subcutaneous; unit not given here; details: in vivo, sc
[5] = Peak concentration at a single subcutaneous administration of 40 mg/kg in mice; format: ADME, organism-based; set-up: dose 40 mg/kg, route subcutaneous; details: mouse, in vivo, sc
[6] = target: T1, Dipeptidase 1 (Sus scrofa) (UniProt P22412); test: Compound was evaluated for DHP-1 stability by using purified porcine renal enzyme which is represented as the relative rate of hydrolysis compared to imipenem (rate=100); format: functional
T1 sequence (whole entry): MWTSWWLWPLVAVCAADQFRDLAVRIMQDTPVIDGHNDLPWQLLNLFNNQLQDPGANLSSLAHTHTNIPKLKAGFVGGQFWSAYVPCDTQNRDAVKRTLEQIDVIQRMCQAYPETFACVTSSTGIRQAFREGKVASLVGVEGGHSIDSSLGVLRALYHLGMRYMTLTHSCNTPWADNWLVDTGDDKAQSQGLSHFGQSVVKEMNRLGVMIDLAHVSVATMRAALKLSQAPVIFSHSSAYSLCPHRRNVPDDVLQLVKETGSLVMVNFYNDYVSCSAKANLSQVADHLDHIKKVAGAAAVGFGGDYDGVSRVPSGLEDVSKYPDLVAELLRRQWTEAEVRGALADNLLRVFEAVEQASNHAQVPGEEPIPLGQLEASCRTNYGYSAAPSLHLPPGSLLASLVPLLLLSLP

[7] = tested on: Enterobacter cloacae; test: Compound was evaluated for in vitro antibacterial activity against Enterobacter cloacae P99 strain by agar dilution method; format: functional
[8] = tested on: Escherichia coli; test: Compound was evaluated for in vitro antibacterial activity against Escherichia coli 078 strain by agar dilution method; format: functional
[9] = tested on: Escherichia coli; test: Compound was evaluated for in vitro antibacterial activity against Escherichia coli 1507 E strain by agar dilution method; format: functional
[10] = tested on: Klebsiella oxytoca; test: Compound was evaluated for in vitro antibacterial activity against Klebsiella oxytoca 1082 E strain by agar dilution method; format: functional
[11] = tested on: Klebsiella aerogenes; test: Compound was evaluated for in vitro antibacterial activity against Klebsiella aerogenes 1522 E strain by agar dilution method; format: functional
[12] = tested on: Mus musculus; test: In vivo protective activity administered sc 1 hr after ip Enterobacter cloacae P strain infection in mice; format: functional; details: read-out: PD50
[13] = tested on: Mus musculus; test: In vivo protective activity administered sc 1 hr after ip Escherichia coli 078 strain infection in mice; format: functional; details: read-out: PD50
[14] = tested on: Mus musculus; test: In vivo protective activity administered sc 1 hr after ip Streptococcus pyogenes 77A strain infection in mice; format: functional; details: read-out: PD50
[15] = tested on: Pseudomonas aeruginosa; test: Compound was evaluated for in vitro antibacterial activity against Pseudomonas aeruginosa 1771 strain by agar dilution method; format: functional
[16] = tested on: Salmonella typhimurium; test: Compound was evaluated for in vitro antibacterial activity against Salmonella Typhimurium by agar dilution method; format: functional, Salmonella enterica subsp. enterica serovar Typhimurium; details: Salmonella enterica
[17] = tested on: Streptococcus pyogenes; test: Compound was evaluated for in vitro antibacterial activity against Streptococcus pyogenes 77A strain by agar dilution method; format: functional
[18] = tested on: Staphylococcus aureus; test: Compound was evaluated for in vitro antibacterial activity against Staphylococcus aureus SG511 strain by agar dilution method; format: functional
[19] = tested on: Enterococcus faecium; test: Compound was evaluated for in vitro antibacterial activity against Streptococcus faecium MD strain by agar dilution method; format: functional
[20] = tested on: Pseudomonas aeruginosa; test: Compound was evaluated for in vitro antibacterial activity against Pseudomonas aeruginosa 1771 M strain by agar dilution method; format: functional
[21] = tested on: Staphylococcus aureus; test: Compound was evaluated for in vitro antibacterial activity against Staphylococcus aureus 285 strain by agar dilution method; format: functional
[22] = target: T1, Dipeptidase 1 (Sus scrofa); test: Compound was evaluated for DHP-1 stability by using purified porcine renal enzyme; format: functional

Structure (SMILES) | MIC [7] [µg/mL] | MIC [8] [µg/mL] | MIC [9] [µg/mL] | MIC [10] [µg/mL] | MIC [11] [µg/mL] | MIC [15] [µg/mL] | MIC [16] [µg/mL] | MIC [17] [µg/mL] | MIC [18] [µg/mL] | MIC [19] [µg/mL] | MIC [20] [µg/mL] | MIC [21] [µg/mL] | Tmax [1] [min] | half-life [3] [min] | Cmax [5] [ng/mL] | ED50 [13] [mg/kg] | ED50 [14] [mg/kg] | also measured
C[C@H]1C([C@H](O)C2CC2)=C(C(=O)[O-])N2C(=O)[C@H]([C@@H](C)O)C12.[Na+] (stereo not given in full) | 0.781 | 0.098 | 0.049 | 0.781 | 0.195 | 100 | 0.098 | 0.007 | 0.049 | 0.781 | 1.56 | 0.049 | 10.2 | 18.6 | 18100 | 23.1 | 7.94 | dose excreted [2]: 14.3%; AUC [4]: 6.86; Activity [6]: 38; ED50 [12]: 12.6 mg/kg
C[C@H]1C([C@@H](O)C2CC2)=C(C(=O)[O-])N2C(=O)[C@H]([C@@H](C)O)C12.[Na+] (stereo not given in full) | 0.781 | 1.56 | 0.195 | 6.25 | 0.781 | 100 | 1.56 | 0.098 | 0.195 | 3.12 | 3.12 | 0.781 | – | – | – | – | – | –
C[C@@H](O)[C@H]1C(=O)N2C(C(=O)O)=C(S[C@@H]3CN[C@H](C(=O)N(C)C)C3)[C@H](C)[C@H]12 [MEROPENEM] | 0.025 (≈ 0.0652 µM) | 0.013 (≈ 0.0339 µM) | 0.025 (≈ 0.0652 µM) | 0.049 (≈ 0.128 µM) | 0.049 (≈ 0.128 µM) | 0.361 (≈ 0.941 µM) | 0.049 (≈ 0.128 µM) | 0.013 (≈ 0.0339 µM) | 0.013 (≈ 0.0339 µM) | 6.25 (≈ 16.3 µM) | 0.049 (≈ 0.128 µM) | 0.195 (≈ 0.509 µM) | 12.6 | 14.4 | 7600 | 1.24 | 4.6 | Activity [22]: 32
CC(C)[C@@H](O)C1=C(C(=O)[O-])N2C(=O)[C@H]([C@@H](C)O)C2[C@H]1C.[Na+] (stereo not given in full) | 1.56 | 0.049 | 0.049 | 1.56 | 0.391 | 100 | 0.098 | 0.007 | 0.098 | 1.56 | 0.781 | 0.098 | 15 | 41.4 | 25000 | 1.3 | 1.19 | dose excreted [2]: 25.1%; AUC [4]: 20.9; Activity [22]: 21; ED50 [12]: 1.37 mg/kg
CO[C@H]1CCC[C@H]2C1=C(C(=O)[O-])N1C(=O)[C@H]([C@@H](C)O)[C@@H]21.[Na+] [SANFETRINEM SODIUM] | 3.12 | 0.049 | 0.195 | 1.56 | 0.391 | 25 | 0.195 | 0.007 | 0.098 | 1.56 | 0.391 | 0.049 | 22.2 | 33 | 28800 | 3.13 | 1.46 | dose excreted [2]: 20.5%; AUC [4]: 27.39; Activity [22]: 20; ED50 [12]: 1.18 mg/kg
C[C@H]1C([C@H](O)C2CCCC2)=C(C(=O)[O-])N2C(=O)[C@H]([C@@H](C)O)C12.[Na+] (stereo not given in full) | 6.25 | 0.195 | 0.195 | 3.12 | 1.56 | 100 | 0.195 | 0.013 | 0.098 | 0.781 | 0.781 | 0.098 | – | – | – | – | – | –

More lines, main results first:

MIC [7] [µg/mL] | MIC [8] [µg/mL] | MIC [9] [µg/mL] | MIC [10] [µg/mL] | MIC [11] [µg/mL] | MIC [15] [µg/mL] | MIC [16] [µg/mL] | MIC [17] [µg/mL] | MIC [18] [µg/mL] | MIC [19] [µg/mL] | MIC [20] [µg/mL] | MIC [21] [µg/mL] | Structure (SMILES) | Tmax [1] [min] | half-life [3] [min] | Cmax [5] [ng/mL] | ED50 [13] [mg/kg] | ED50 [14] [mg/kg] | also measured
0.781 | 0.391 | 0.391 | 12.5 | 0.781 | 100 | 0.781 | 0.049 | 0.391 | 12.5 | 6.25 | 0.391 | CC[C@H](O)C1=C(C(=O)[O-])N2C(=O)[C@H]([C@@H](C)O)C2[C@H]1C.[Na+] (stereo not given in full) | – | – | – | – | – | –
3.12 | 0.195 | 0.195 | 3.12 | 3.12 | 100 | 0.195 | 0.013 | 0.098 | 1.56 | 1.56 | 0.098 | CCC(C)[C@@H](O)C1=C(C(=O)[O-])N2C(=O)[C@H]([C@@H](C)O)C2[C@H]1C.[Na+] (stereo not given in full) | – | – | – | – | – | –
0.781 | 0.098 | 0.098 | 3.12 | 0.391 | 100 | 0.391 | 0.625 | 0.098 | 3.12 | 1.56 | 0.098 | CC[C@@H](O)C1=C(C(=O)[O-])N2C(=O)[C@H]([C@@H](C)O)C2[C@H]1C.[Na+] (stereo not given in full) | – | – | – | – | – | –
6.25 | 0.781 | 0.781 | 12.5 | 6.25 | 100 | 1.56 | 0.049 | 0.391 | 12.5 | 6.25 | 0.391 | C[C@H]1C([C@H](O)C(C)(C)C)=C(C(=O)[O-])N2C(=O)[C@H]([C@@H](C)O)C12.[Na+] (stereo not given in full) | – | – | – | – | – | –
12.5 | 1.56 | 0.391 | 25 | 12.5 | 100 | 0.781 | 0.025 | 0.781 | 12.5 | 1.56 | 0.781 | CC(C)[C@H](O)C1=C(C(=O)[O-])N2C(=O)[C@H]([C@@H](C)O)C2[C@H]1C.[Na+] (stereo not given in full) | – | – | – | – | – | –
